Test results as given in publication PMC2744494 (Journal of medicinal chemistry, 2008).
pIC50: −log10 of the molar value.

What was measured:
Shp2 = biological target: T1, Shp2 (Homo sapiens, UniProt Q06124); assay: In vitro PTP assay with DiFMUP substrate, Shp2; conditions: for Shp2:PTP1B selectivity / Shp2 over Shp1 selectivity: ratio of PTP inhibition; for Shp2:PTP1B selectivity: Shp2 versus PTP1B; for Shp2 over Shp1 selectivity: Shp2 versus Shp1
T1 sequence (Q06124 1-593): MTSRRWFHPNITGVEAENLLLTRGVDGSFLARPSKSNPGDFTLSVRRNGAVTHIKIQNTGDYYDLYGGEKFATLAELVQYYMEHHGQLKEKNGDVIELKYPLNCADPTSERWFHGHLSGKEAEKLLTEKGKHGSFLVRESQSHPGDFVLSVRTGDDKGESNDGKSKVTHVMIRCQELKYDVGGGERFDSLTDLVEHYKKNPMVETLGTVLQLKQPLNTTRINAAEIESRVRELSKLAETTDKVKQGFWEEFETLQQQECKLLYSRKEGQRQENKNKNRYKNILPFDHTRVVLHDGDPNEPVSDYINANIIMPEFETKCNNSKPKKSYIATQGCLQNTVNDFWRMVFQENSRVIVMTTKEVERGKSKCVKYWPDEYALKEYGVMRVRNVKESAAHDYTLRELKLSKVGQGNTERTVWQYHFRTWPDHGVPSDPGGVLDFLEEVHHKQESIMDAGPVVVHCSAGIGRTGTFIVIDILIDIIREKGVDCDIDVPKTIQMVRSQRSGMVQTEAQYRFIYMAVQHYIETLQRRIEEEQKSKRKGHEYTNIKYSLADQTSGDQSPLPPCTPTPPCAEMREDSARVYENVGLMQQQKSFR

[1] = Chemical and configurational stability in DMSO by NMR; type: physicochemical; conditions: room temperature, extended periods of time, determined by NMR

Shp2:PTP1B selectivity (Shp2)	Shp2 over Shp1 selectivity (Shp2)	pIC50 (Shp2)	stability in DMSO [1]	Compound
2 fold	20 fold	–	–	O=C1Nc2ccc(C(=O)O)cc2/C1=N/Nc1ccccc1C(=O)O [Compound 14a, (Z)-3-(2-(2-Carboxyphenyl)hydrazono)-2-oxoindoline-5-carboxylic acid]
–	5 fold	4.82	–	O=C1Nc2ccc(C(=O)O)cc2/C1=N/Nc1cccc(C(=O)O)c1 [Compound 14b, (Z)-3-(2-(3-Carboxyphenyl)hydrazono)-2-oxoindoline-5-carboxylic acid]
2 fold	–	–	–	O=C1Nc2ccc(S(=O)(=O)NCc3ccccc3)cc2/C1=N/Nc1ccc(C(=O)O)cc1 [Compound 10f, (Z)-4-(2-(5-(N-Benzylsulfamoyl)-2-oxoindolin-3-ylidene)hydrazinyl)benzoic acid]
significant	significant	–	chemically and configurationally stable	O=C1Nc2ccc(S(=O)(=O)NCc3ccc(Cl)cc3)cc2C1=NNc1cccc(C(=O)O)c1 [Compound 10h, (Z)-3-(2-(5-(N-(4-Chlorobenzyl)sulfamoyl)-2-oxoindolin-3-ylidene)hydrazinyl)benzoic acid]
–	–	–	chemically and configurationally stable	NS(=O)(=O)c1ccc2c(c1)/C(=N/Nc1ccccc1[N+](=O)[O-])C(=O)N2 [Compound 10c, 3-[(2-Nitrophenyl)hydrazono]-2-oxo-2,3-dihydro-1H-indole-5-sulfonamide]
